Read-outs that look alike come from different tables or passages of the source.
Tests used:
Assay type in all cases: cell-based
[1] = target: T1, HPV16 E7 protein (Human papillomavirus type 16, UniProt P03129); conditions: CaSki cells; for % Dad: adjusted degradation, CHX steady state set to 100% degradation
T1 construct: endogenous in cells; host or cells: CaSki cells (HPV16-positive cervical carcinoma)
Experimental: For intracellular antibody labeling, 0.5×10^6 cells are washed once with 1 ml ice-cold PBS. Cells are centrifuged at 350×g for 5 minutes at 4° C. and then fixed in 1% paraformaldehyde (1 ml/10^6 cells) for 20 minutes at 4° C. Cells are washed with 1 ml ice-cold PBS and centrifuged at 350×g for 5 minutes at 4° C. To permeabilize cells, 100% ice-cold methanol (1 ml/10^6 cells) is added to the cells and incubated for 20 minutes at 4° C. followed by centrifugation at 350×g for 5 minutes at 4° C. Cells are washed with 1 ml ice-cold PBS, centrifuged at 350×g for 5 minutes at 4° C. and resuspended in 0.1% saponin+2% FBS in PBS (ice-cold). Cells are left for 20-30 minutes at room temperature to reduce the background signal and then centrifuged at 350×g for 5 minutes at 4° C. The primary antibody (mAb_HPV16E7-1 (VS13004); concentration 1 μg/μl) is diluted in 0.1% saponin+2% FBS (dilution 0.25 μg/50 μl of incubation buffer per 1×10^6 cells (5 ng/μl)). Cells are incubated with primary antibody for 30 minutes at room temperature, washed with 0.1% saponin+2% FBS and centrifuged at 350×g for 5 minutes at 4° C. The secondary antibody (FITC conjugated goat anti-mouse IgG1-IgM, BD, cat. #555988) is diluted in 0.1% saponin+2% FBS (dilution 1:50). Cells are incubated with secondary antibody for 30 minutes at room temperature, washed once with 0.1% saponin+2% FBS, once with PBS and centrifuged at 350×g for 5 minutes at 4° C.
Cells are resuspended in 700 μl PBS prior to CF analysis with a Beckman Coulter FC 500 MPL, (excitation laser 488 nm). Data analysis is done using the Beckman Coulter software packages MXP for acquisition and CXP for data analysis which includes MFI calculation. Detection of HPV-E7 protein expression is based on morphology back-gating of FL1 histogram (logarithmic scale) with gating for dot plot FS (Forward Scatter) log/SS (Sideward Scatter) log and gating for histograms SS log.
In order to define the level of E7 protein expression and to study the extent of E7 protein steady state level reduction in E7 expressing cells in the presence of various compounds, FC analysis is implemented using the intracellular antibody labeling procedure for monoclonal antibodies to HPV E7. E7 signal intensities are analyzed from the obtained FL1 histograms at logarithmic scale. The FL1 single histogram graph represents the variation in the mean fluorescence intensity (MFI) channel for cells treated with selected compounds compared to cells not incubated with primary antibodies but incubated with secondary, which allows to test for auto-fluorescence, and non-compound treated cells as controls. Non-primary antibody-stained cells are used to set the acquisition parameters to zero. Decrease of the mean fluorescence intensity channel corresponds to a decrease in the expression of HPV16 E7 protein. Degradation of E7 in cells is calculated as percent (%) reduction in MFI(x-Me) using the following formulas: % Drel=(T−C)/T*100; i) relative degradation: % Dad=(T−C)/(T−CHX)*100; ii) adjusted degradation: • Drel=relative degradation, • Dad=adjusted degradation assuming CHX % Drel=100; • T=MFI of non-treated cells; • C=MFI of compound treated cells; • CH=MFI of cycloheximide (CHX) treated cells;
For comparison within one experiment i) the % relative degradation (Drel) is sufficient, whereas for comparison between two or more experiments ii) the adjusted degradation (Dad) is used and CHX steady state is set to a 100% degradation parameter.
1×10^6 freshly seeded CaSki cells (ATCC CRL-7915), are grown in 10 cm diameter cell culture dishes in RPMI1640, 10% FCS medium at 37° C. 5% CO2 overnight and then incubated in the presence of 10 μM Cycloheximide (CHX) 10 μM OC246 or with vehicle alone for four hours at 37° C. 5% CO2. Following this E7 protein is assessed by cytofluorimetric analysis using intracellular HPV16 E7 antibody labeling. […]

[2] = test system: SARS-CoV-2 isolate BetaCov/Belgium/GHB-03021/2020; assay: microbe, parasite or virus in culture; conditions: 1.25 μM (non-toxic compound concentration), n4; for inhibition at 1.25 µM: Severe acute respiratory syndrome coronavirus 2
[3] = test system: CaSki (ATCC CRM-CRL-1550); assay: Monolayer assay using Sulphorhodamine B (SRB) staining, CaSki; conditions: Homo sapiens, Ca-Ski
Experimental: Various cell culture cells grown as monolayers are harvested from exponential growing cultures after treatment with various OC compounds at different concentrations. For this depending on the cell line, 10.000 to 30.000 cells were plated in 96-well flat-bottom microtiter plates. After a 24 h recovery period to allow cells to resume exponential growth, supernatants are discarded and 100 μl of culture medium (eight control wells/plate) or culture medium with the test compound are added by a liquid handling robotic system (Microlab® Starlet, Hamilton) and treatment continued for 72 hrs. Compounds are applied at 9 concentrations and eight wells/concentration). At least three independent experiments are performed. For SRB staining, cells are fixed with SRB01 (Tab. 5) for 1 h at 4° C. (final concentration of TCA=10%) washed with a plate washer (Hydroflex, Tecan©) for five times with H2O; and stained with 100 μl of SRB02 at room temperature for 10 min following 4 washes in SRB03 and finally 100 μl of developer solution SRB04 for 5 minutes with shaking. Optical density is assessed using a plate-reader (Sunrise, Tecan©) at 540 nm.
Concentrations required for half maximal response of the compound for cell growth inhibition (EC50) is calculated by non-linear regression (log[conc. of inhibitor] versus response (% T/C)) using the analysis software GraphPad Prism®, Prism 5 for windows, version 5.01 (GraphPad Software Inc., CA).

[4] = SRB assay from Caski cells, “0” = no activity detected with the concentrations tested, read-out: EC50 mean

T1 sequence (P03129 whole entry): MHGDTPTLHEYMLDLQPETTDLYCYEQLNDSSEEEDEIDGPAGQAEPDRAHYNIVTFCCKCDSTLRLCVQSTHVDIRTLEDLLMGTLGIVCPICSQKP

SMILES	% Dad [1] [%]	inhibition at 1.25 µM [2] [%]	other results
COc1ccc2c(c1)C(=O)N(Cc1ccc(C)cc1)[C@@H](c1ccc(C(F)(F)F)cc1)[C@@H]2C(=O)Nc1cccc(N2CCN(C)CC2)c1 (relative stereo) [OC969]	66		
CC(=O)Nc1ccc2c(c1)C(=O)N(Cc1ccc(C)cc1)[C@@H](c1ccc(C(F)(F)F)cc1)[C@@H]2C(=O)Nc1cccc(N2CCN(C)CC2)c1 (relative stereo) [OC970]	20	3.03	EC50 ([3]; read-out: EC50 mean [nM]): 5550 nM
COc1cc2c(cc1OC)[C@@H](C(=O)Nc1cccc(N3CCN(C)CC3)c1)[C@H](c1ccc(C(F)(F)F)cc1)N(Cc1ccc(C)cc1)C2=O (relative stereo) [OC971]	26		
C[C@@H]1C[C@@H]([C@H](O)CC2CC(=O)NC(=O)C2)C(=O)[C@@H](C)C1 [CHX, Cycloheximide, reference compound]			% Drel (relative degradation) ([1]; 10 μM, four hours): 78.78%; % Dab (adjusted degradation) ([1]; 10 μM, four hours, CHX set to 100): 100%; MFI (mean fluorescence intensity) of E7 signal ([1]; 10 μM, four hours, vehicle T 8.06): 1.71
O=C(NOCC1CC1)c1ccc(F)c(F)c1Nc1ccc(I)cc1Cl [CI-1040, 2-(2-Chloro-4-iodophenylamino)-N-(cyclopropylmethoxy)-3,4-difluorobenzamide, reference compound]		146	
COc1ccc2cc1Oc1ccc(cc1)C[C@H]1c3c(cc4c(c3Oc3cc5c(cc3OC)CCN(C)[C@@H]5C2)OCO4)CCN1C [Cepharantin, reference compound]			% Inhibition [2]: 2.32%
c1c2c(cc3c1OCO3)-c1cc3ccc4c(c3c[n+]1CC2)OCO4 [Coptisin, reference compound]			% Inhibition [2]: 98.97%
CS(=O)(=O)O.Cc1c(O)cccc1C(=O)N[C@@H](CSc1ccccc1)[C@H](O)CN1C[C@H]2CCCC[C@H]2C[C@H]1C(=O)NC(C)(C)C [Neifinavir-Mesylat, reference compound]			% Inhibition [2]: 9.49%
Cc1ccc(CN2C(=O)c3ccccc3C(C(=O)Nc3cccc(N4CCN(C)CC4)c3)C2c2ccc(Cl)c(Cl)c2)cc1 (centres unmarked) [OC245]	0		
Cc1ccc(CN2C(=O)c3ccccc3C(C(=O)Nc3cccc(N4CCN(C)CC4)c3)C2c2ccc(Br)cc2)cc1 (centres unmarked) [OC247]	6	30.6	EC50 ([3]; read-out: EC50 mean [nM]): 6730 nM
Cc1ccc(CN2C(=O)c3ccccc3C(C(=O)NCCN(C)C)C2c2ccc(Cl)cc2)cc1 (centres unmarked) [OC250]	19		
Cc1ccc(CN2C(=O)c3ccccc3C(C(=O)NCCN3CCCC3)C2c2ccc(Cl)cc2)cc1 (centres unmarked) [OC251]	1		
COCCNC(=O)C1c2ccccc2C(=O)N(Cc2ccc(C)cc2)C1c1ccc(Cl)cc1 (centres unmarked) [OC252]	0		
Cc1ccc(CN2C(=O)c3ccccc3C(C(=O)NCc3ccc(N(C)C)cc3)C2c2ccc(Cl)cc2)cc1 (centres unmarked) [OC254]	16		
Cc1ccc(CN2C(=O)c3ccccc3C(C(=O)NCc3cccnc3)C2c2ccc(Cl)cc2)cc1 (centres unmarked) [OC255]	2		
Cc1ccc(CN2C(=O)c3ccccc3C(C(=O)N3CCN(C)CC3)C2c2ccc(Cl)cc2)cc1 (centres unmarked) [OC256]	8		
Cc1ccc(CN2C(=O)c3ccccc3C(C(=O)N3CCN(C=O)CC3)C2c2ccc(Cl)cc2)cc1 (centres unmarked) [OC258]	0		
Cc1ccc(CN2C(=O)c3ccccc3C(C(=O)NCCN(C)C)C2c2ccc(C(F)(F)F)cc2)cc1 (centres unmarked) [OC377]	35	81.6	EC50 [3, 4]: 6750 nM
CN(C)CCNC(=O)C1c2ccccc2C(=O)N(Cc2ccc(C(F)(F)F)cc2)C1c1ccc(C(F)(F)F)cc1 (centres unmarked) [OC378]	48	43.4	EC50 [3, 4]: 5690 nM
Cc1ccc(C2C(C(=O)NCCN(C)C)c3ccccc3C(=O)N2Cc2ccc(C(F)(F)F)cc2)cc1 (centres unmarked) [OC379]	26	33.4	EC50 [3, 4]: 11900 nM
CN(C)CCNC(=O)C1c2ccccc2C(=O)N(Cc2ccc(N)cc2)C1c1ccc(C(F)(F)F)cc1 (centres unmarked) [OC380]	3	72.6	EC50 [3, 4]: 11400 nM
Cc1ccc(CN2C(=O)c3ccccc3C(C(=O)NCCN(C)C)C2c2ccc(C(F)(F)F)nc2)cc1 (centres unmarked) [OC381]	41	43.7	EC50 ([3]; read-out: EC50 mean [nM]): 17500 nM
CN(C)CCNC(=O)C1c2ccccc2C(=O)N(Cc2ccc(N(C)C)cc2)C1c1ccc(C(F)(F)F)cc1 (centres unmarked) [OC382]		41.2	EC50 [3, 4]: 2300 nM
CO[C@H]1C[C@@H]2CC[C@@H](C)[C@@](O)(O2)C(=O)C(=O)N2CCCC[C@H]2C(=O)O[C@H]([C@H](C)C[C@@H]2CC[C@@H](O)[C@H](OC)C2)CC(=O)[C@H](C)/C=C(\C)[C@@H](O)[C@@H](OC)C(=O)[C@H](C)C[C@H](C)/C=C/C=C/C=C/1C [Rapamycin, reference compound]		21.1	
